# From patent publication US9624229B2, “Pyrimidine-2-amine compounds and their use as inhibitors of JAK kinases” (Rigel Pharmaceuticals, Inc., priority 2008, dated 2017)
# Like-named read-outs stand apart in the source and are kept apart here.
# Target: Ba/F3 V617F cells (Homo sapiens, UniProt O60674, V617F, cells depend on it)
# Experiment: Proliferation assay (Cell Titer-Glo, 72 h) utilizing Ba/F3 V617F cells
# Type: cell-based, mouse
# Procedure, shortened: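 Ba/F3 V617F cells in RPMI/10% FBS, 1×10^5 cells/mL, exposed in duplicate to 3-fold serial compound dilutions (top 5 mM DMSO stock, diluted 1:250, added as 2× solution in 5% FBS medium) for 72 h at 37 °C. Viability by Cell Titer-Glo luminescence; IC50 reported.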
# [1] = Ba/F3 V617F cells, proliferation, level of activity to inhibit JAK2, read-out: IC50 (the source's name)
# [2] = inhibition of JAK2 activity, proliferation of Ba/F3 V617F cells, read-out: IC50 (the source's name)
# [3] = Ba/F3 V617F cells, proliferation, level of activity given as class symbol, read-out: IC50 (the source's name)
# Chain of Ba/F3 V617F cells (O60674 whole entry V617F): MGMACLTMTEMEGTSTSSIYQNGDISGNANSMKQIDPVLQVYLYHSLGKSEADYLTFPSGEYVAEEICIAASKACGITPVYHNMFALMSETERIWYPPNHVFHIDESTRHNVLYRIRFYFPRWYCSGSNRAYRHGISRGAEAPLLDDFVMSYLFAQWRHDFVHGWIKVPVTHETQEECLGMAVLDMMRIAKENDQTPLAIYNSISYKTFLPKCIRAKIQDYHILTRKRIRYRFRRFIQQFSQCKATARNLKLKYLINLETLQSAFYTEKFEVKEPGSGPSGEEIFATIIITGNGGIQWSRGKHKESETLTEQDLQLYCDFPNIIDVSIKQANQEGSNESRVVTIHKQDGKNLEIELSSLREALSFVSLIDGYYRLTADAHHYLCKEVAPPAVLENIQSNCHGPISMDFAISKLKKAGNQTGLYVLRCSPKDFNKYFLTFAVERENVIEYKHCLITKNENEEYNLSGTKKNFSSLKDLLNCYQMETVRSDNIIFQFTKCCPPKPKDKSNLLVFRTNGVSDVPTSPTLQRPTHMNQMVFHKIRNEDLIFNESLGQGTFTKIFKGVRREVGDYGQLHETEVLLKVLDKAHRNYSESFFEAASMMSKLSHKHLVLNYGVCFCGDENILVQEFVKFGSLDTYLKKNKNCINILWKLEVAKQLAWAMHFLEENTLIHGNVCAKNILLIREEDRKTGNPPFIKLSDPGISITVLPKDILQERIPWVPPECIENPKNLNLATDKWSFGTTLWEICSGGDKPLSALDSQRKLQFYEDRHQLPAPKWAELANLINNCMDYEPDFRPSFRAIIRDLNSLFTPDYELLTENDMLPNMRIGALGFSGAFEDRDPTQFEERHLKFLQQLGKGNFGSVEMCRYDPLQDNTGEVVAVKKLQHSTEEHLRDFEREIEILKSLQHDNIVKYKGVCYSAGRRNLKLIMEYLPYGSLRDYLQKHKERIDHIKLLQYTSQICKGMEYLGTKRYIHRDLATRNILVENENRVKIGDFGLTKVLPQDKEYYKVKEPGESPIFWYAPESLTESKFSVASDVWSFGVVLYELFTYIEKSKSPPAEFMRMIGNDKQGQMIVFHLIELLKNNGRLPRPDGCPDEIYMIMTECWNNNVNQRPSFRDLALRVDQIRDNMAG
SMILES,GI50 [1],other results
"Cc1cc(Nc2nccc(-c3ccc(N)nc3)n2)ccc1N1C[C@@H]2C[C@H]1CN2S(C)(=O)=O [compound 150, 4-(6-aminopyridin-3-yl)-N-(3-methyl-4-((1S,4S)-5-methylsulfonyl-2,5-diazabicyclo[2.2.1]heptan-2-yl)phenyl)pyrimidin-2-amine]",< 1000 nM,–
"Cc1cc(Nc2nccc(-c3cnc4c(c3)OCCN4C)n2)cnc1N1C[C@@H]2C[C@H]1CN2C [compound 65, 4-(4-methyl-3,4-dihydro-2H-pyrido[3,2-b][1,4]oxazin-7-yl)-N-(5-methyl-6-((1S,4S)-5-methyl-2,5-diazabicyclo[2.2.1]heptan-2-yl)pyridin-3-yl)pyrimidin-2-amine]",–,GI50 [2]: < 1000 nM
"CC(=O)Nc1ccc(-c2ccnc(Nc3ccc(N4C[C@@H]5C[C@H]4CN5C)nc3)n2)cn1 [compound 55, 4-(6-(methylcarbonylamino)pyridin-3-yl)-N-(6-((1S,4S)-5-methyl-2,5-diazabicyclo[2.2.1]heptan-2-yl)pyridin-3-yl)pyrimidin-2-amine]",–,GI50 [2]: 1000 to 10000 nM
"Cc1cc(Nc2nccc(-c3cnc4c(c3)CCC(=O)N4)n2)ccc1N1C[C@@H]2C[C@H]1CN2C [compound 51, 4-(7-oxo-5,6,7,8-tetrahydro-1,8-naphthyridin-3-yl)-N-(3-methyl-4-((1S,4S)-5-methyl-2,5-diazabicyclo[2.2.1]heptan-2-yl)phenyl)pyrimidin-2-amine]",< 1000 nM,–
"Cc1cc(Nc2nccc(-c3cc[nH]c3)n2)ccc1N1C[C@@H]2C[C@H]1CN2C [compound 169, 4-(1H-pyrrol-3-yl)-N-(3-methyl-4-((1S,4S)-5-methyl-2,5-diazabicyclo[2.2.1]heptan-2-yl)phenyl)pyrimidin-2-amine]",1000 to 10000 nM,–
"CC(=O)N1C[C@@H]2C[C@H]1CN2c1ccc(Nc2nccc(-c3cnc4c(c3)OC(C)(C)C(=O)N4)n2)cc1C [compound 251, 4-(2,2-dimethyl-3-oxo-3,4-dihydro-2H-pyrido[3,2-b][1,4]oxazin-7-yl)-N-(3-methyl-4-((1S,4S)-5-acetyl-2,5-diazabicyclo[2.2.1]heptan-2-yl)phenyl)pyrimidin-2-amine]",–,GI50 [3]: < 1000 nM
"Cc1cc(Nc2nccc(-c3ccc(N4CCOCC4)nc3)n2)ccc1N1CC2(C)CN(C)CC(C)(C1)C2 [compound 75, 4-(6-(morpholin-4-yl)pyridin-3-yl)-N-(3-methyl-4-(1,5,7-trimethyl-3,7-diazabicyclo[3.3.1]nonan-3-yl)phenyl)pyrimidin-2-amine]",< 1000 nM,–
"Cc1cc(Nc2nccc(-c3ccc4c(c3)SCC(=O)N4)n2)ccc1N1CCN2C(C1)[C@H]1CC[C@@H]2C1 (stereo partly drawn) [compound 279, 4-(3-oxo-3,4-dihydro-2H-benzo[b][1,4]thiazin-7-yl)-N-(3-methyl-4-((6R,9S)-6,9-methanooctahydro-1H-pyrido[1,2-a]pyrazin-2-yl)phenyl)pyrimidin-2-amine]",–,GI50 [3]: < 1000 nM
"Cc1cc(Nc2nccc(-c3cnc4c(c3)OC(C)(C)C(=O)N4)n2)ccc1N1C[C@@H]2C[C@H]1CN2C1CCCC1 [compound 250, 4-(2,2-dimethyl-3-oxo-3,4-dihydro-2H-pyrido[3,2-b][1,4]oxazin-7-yl)-N-(3-methyl-4-((1S,4S)-5-cyclopentyl-2,5-diazabicyclo[2.2.1]heptan-2-yl)phenyl)pyrimidin-2-amine]",–,GI50 [3]: < 1000 nM
"Cc1cc(Nc2nccc(-c3ccnc(C(F)(F)F)c3)n2)ccc1N1C[C@@H]2C[C@H]1CN2C [compound 256, 4-(2-(trifluoromethyl)pyridin-4-yl)-N-(3-methyl-4-((1S,4S)-5-methyl-2,5-diazabicyclo[2.2.1]heptan-2-yl)phenyl)pyrimidin-2-amine]",–,GI50 [3]: < 1000 nM
"Cc1cc(-c2ccnc(Nc3ccc(N4C[C@@H]5C[C@H]4CN5C)nc3)n2)cnc1N1CCOCC1 [compound 58, 4-(5-methyl-6-(morpholin-4-yl)pyridin-3-yl)-N-(6-((1S,4S)-5-methyl-2,5-diazabicyclo[2.2.1]heptan-2-yl)pyridin-3-yl)pyrimidin-2-amine]",–,GI50 [2]: 1000 to 10000 nM
"CC(=O)Nc1ccc(-c2ccnc(Nc3cnc(N4C[C@@H]5C[C@H]4CN5C)c(C)c3)n2)cn1 [compound 146, 4-(6-(acetamido)pyridin-3-yl)-N-(5-methyl-6-((1S,4S)-5-methyl-2,5-diazabicyclo[2.2.1]heptan-2-yl)pyridin-3-yl)pyrimidin-2-amine]",–,GI50 [2]: 1000 to 10000 nM
"Cc1cc(Nc2nccc(-c3ccc(N)nc3)n2)cnc1N1C[C@@H]2C[C@H]1CN2C [compound 145, 4-(6-aminopyridin-3-yl)-N-(5-methyl-6-((1S,4S)-5-methyl-2,5-diazabicyclo[2.2.1]heptan-2-yl)pyridin-3-yl)pyrimidin-2-amine]",–,GI50 [2]: < 1000 nM
"Cc1cc(Nc2nccc(-c3ccc(NCCC(C)C)nc3)n2)ccc1N1C[C@@H]2C[C@H]1CN2C [compound 217, 4-(6-(3-methylbutyl)aminopyridin-3-yl)-N-(3-methyl-4-((1S,4S)-5-methyl-2,5-diazabicyclo[2.2.1]heptan-2-yl)phenyl)pyrimidin-2-amine]",–,GI50 [3]: < 1000 nM
"CN1C[C@@H]2C[C@H]1CN2c1ccc(Nc2nccc(-c3cnc(N4CCOCC4)cn3)n2)cc1F [compound 179, 4-(5-(morpholin-4-yl)pyrazin-2-yl)-N-(3-fluoro-4-((1S,4S)-5-methyl-2,5-diazabicyclo[2.2.1]heptan-2-yl)phenyl)pyrimidin-2-amine]",1000 to 10000 nM,–
"Cc1cc(Nc2nccc(-c3ccc(N4CCSCC4)nc3)n2)ccc1N1C[C@@H]2C[C@H]1CN2C [compound 230, 4-(6-(thiamorpholin-4-yl)pyridin-3-yl)-N-(3-methyl-4-((1S,4S)-5-methyl-2,5-diazabicyclo[2.2.1]heptan-2-yl)phenyl)pyrimidin-2-amine]",–,GI50 [3]: < 1000 nM
"Cc1cc(Nc2nccc(-c3ccc4c(ccn4-c4ccncc4)c3)n2)ccc1N1C[C@@H]2C[C@H]1CN2C [compound 232, 4-(1-(pyridin-4-yl)-1H-indol-5-yl)-N-(3-methyl-4-((1S,4S)-5-methyl-2,5-diazabicyclo[2.2.1]heptan-2-yl)phenyl)pyrimidin-2-amine]",–,GI50 [3]: < 1000 nM
"Cc1cc(Nc2nccc(-c3ccc(N4CCOCC4)nc3)n2)ccc1N1C[C@@H]2C[C@H]1CN2S(C)(=O)=O [compound 192, 4-(6-(morpholin-4-yl)pyridin-3-yl)-N-(3-methyl-4-((1S,4S)-5-methylsulfonyl-2,5-diazabicyclo[2.2.1]heptan-2-yl)phenyl)pyrimidin-2-amine]",–,GI50 [3]: < 1000 nM
"CC1CCCN(c2cnc(-c3ccnc(Nc4ccc(N5C[C@@H]6C[C@H]5CN6C)c(F)c4)n3)cn2)C1 (stereo partly drawn) [compound 127, 4-(5-(3-methylpiperidin-1-yl)pyrazin-2-yl)-N-(3-fluoro-4-((1S,4S)-5-methyl-2,5-diazabicyclo[2.2.1]heptan-2-yl)phenyl)pyrimidin-2-amine]",1000 to 10000 nM,–
"CCC(=O)N1C[C@@H]2C[C@H]1CN2c1ccc(Nc2nccc(-c3ccc(NC(C)=O)nc3)n2)cc1C [compound 149, 4-(6-(acetamido)pyridin-3-yl)-N-(3-methyl-4-((1S,4S)-5-ethylcarbonyl-2,5-diazabicyclo[2.2.1]heptan-2-yl)phenyl)pyrimidin-2-amine]",< 1000 nM,–
"CCNC(=O)N1C[C@@H]2C[C@H]1CN2c1ccc(Nc2nccc(-c3ccc(N4CCOCC4)nc3)n2)cc1C [compound 26, 4-(6-(morpholin-4-yl)pyridin-3-yl)-N-(3-methyl-4-((1S,4S)-5-((ethylamino)carbonyl)-2,5-diazabicyclo[2.2.1]heptan-2-yl)phenyl)pyrimidin-2-amine]",< 1000 nM,–

# Now from value to molecule, other results behind:
GI50 [1],SMILES,other results
< 1000 nM,"Cc1cc(Nc2nccc(-c3ccc(N(C)C)nc3)n2)ccc1N1C[C@@H]2C[C@H]1CN2C [compound 1, 4-(6-(N,N-dimethylamino)pyridin-3-yl)-N-(3-methyl-4-((1S,4S)-5-methyl-2,5-diazabicyclo[2.2.1]heptan-2-yl)phenyl)pyrimidin-2-amine]",–
< 1000 nM,"Cc1cc(Nc2ncc(F)c(-c3ccc(N(C)C)nc3)n2)ccc1N1C[C@@H]2C[C@H]1CN2C [compound 4, 4-(6-(N,N-dimethylamino)pyridin-3-yl)-5-fluoro-N-(3-methyl-4-((1S,4S)-5-methyl-2,5-diazabicyclo[2.2.1]heptan-2-yl)phenyl)pyrimidin-2-amine]",–
< 1000 nM,"Cc1cc(Nc2nccc(-c3ccc(NC4CCCCC4)nc3)n2)ccc1N1CC2(C)CN(C)CC(C)(C1)C2 [compound 77, 4-(6-(cyclohexylamino)pyridin-3-yl)-N-(3-methyl-4-(1,5,7-trimethyl-3,7-diazabicyclo[3.3.1]nonan-3-yl)phenyl)pyrimidin-2-amine]",–
1000 to 10000 nM,"CN1C[C@@H]2C[C@H]1CN2c1ccc(Nc2nccc(-c3ccc(NC(=O)CN4CCOCC4)nc3)n2)cc1 [compound 142, 4-(6-(2-(morpholin-4-yl)acetamido)pyridin-3-yl)-N-(4-((1S,4S)-5-methyl-2,5-diazabicyclo[2.2.1]heptan-2-yl)phenyl)pyrimidin-2-amine]",–
< 1000 nM,"Cc1cnc(Nc2ccc(N3C[C@@H]4C[C@H]3CN4C)c(F)c2)nc1-c1ccc(N(C)C)nc1 [compound 6, 4-(6-(N,N-dimethylamino)pyridin-3-yl)-5-methyl-N-(3-fluoro-4-((1S,4S)-5-methyl-2,5-diazabicyclo[2.2.1]heptan-2-yl)phenyl)pyrimidin-2-amine]",–
< 1000 nM,"Cc1cc(Nc2nccc(-c3ccc(N4CCOCC4)nc3)n2)ccc1N1C[C@@H]2C[C@H]1CN2C [compound 10, 4-(6-(morpholin-4-yl)pyridin-3-yl)-N-(3-methyl-4-((1S,4S)-5-methyl-2,5-diazabicyclo[2.2.1]heptan-2-yl)phenyl)pyrimidin-2-amine]",–
1000 to 10000 nM,"CN1C[C@@H]2C[C@H]1CN2c1ccc(Nc2nccc(-c3ccc(NC(=O)CN4CCOCC4)nc3)n2)cc1F [compound 143, 4-(6-(2-(morpholin-4-yl)acetamido)pyridin-3-yl)-N-(3-fluoro-4-((1S,4S)-5-methyl-2,5-diazabicyclo[2.2.1]heptan-2-yl)phenyl)pyrimidin-2-amine]",–
